According to US9926529B2, “Derivation of neural stem cells and dopaminergic neurons from human pluripotent stem cells” (International Stem Cell Corporation, priority 2012, dated 2018):
Structures can show the parent of a compound that is named as a salt. Where two headings read alike, the source gives them in different places.

System: hPSC-NSCs
Assay: RT-PCR expression of dopamine neuron genes in hPSC-NSCs treated with small molecule hits
Assay type: cell-based, human
Settings: for fold induction at 2.5 µM: Homo sapiens, Neuron, 336 h
Procedure: The method specifically involved treating both hESC-H9-NSCs (Invitrogen) and hPSC-NSCs with Purmorphamine (2 μM) and FGF8 (100 ng/mL) in NB medium [NeuroBasal medium, 1× GlutaMAX, 1× N2/B27 Supplement (Invitrogen)] for 7 days. After 7 days of Purmorphamine and FGF8 treatment, the NSCs were dissociated with Accutase (Sigma) and plated 20,000 cells/mL into Matrigel coated 96 well plates and treated with small molecule library (Torcris 1120 Biologically Active Compounds) at 2.5 μM final concentration for two weeks (FIG. 6A). Two weeks after treatment with small molecules, all wells were visually observed and scored based on neurite density and dopamine release. For measuring neurite density, cells were fixed with 4% paraformaldehyde and phase contrast images were acquired using Cellavista Cell Imaging System (Roche Applied Science) from randomly selected fields. Neurite density was measured using the Cellavista density software image processing program. Each experimental condition was done in duplicate wells, and at least three independent experiments were conducted to acquire the final results.
Conditioned medium from the top neurite inducers (Table 1) (wells containing the highest density of neurites compare to control 0.1% DMSO treated) were collected and analyzed using a dopamine ELISA assay (Cosmo Bio). Conditioned medium was collected from samples containing 50,000 cells per well and centrifuged at 3000 RPM to remove cell debris. Supernatant was then collected and analyzed for quantitative determination of dopamine using a commercial dopamine ELISA assay kit (CusaCosmo Bio). Data analysis was performed using the microtiter plate reader (BIO-TEK Synergy 2). The results presented are from three independent experiments (n=3) and represented as mean±standard error of mean (s.e.m.) and statistical analysis was performed using the two-tailed Student's t-test with a confidence level of 95% (α=0.05) with statistical significance of P<0.05. Additionally, total RNA from each well were collected and analyze by RT-PCR for expression of TuJ1, MAP2, TH, GRK2, EN1, DAT, AADC, PAX2, NURR1, PITX3 and LMX1B from hPSC-NSCs (Table 2). […] Analysis of the ELISA data indicated the top small molecule neurite inducers produced higher levels of dopamine than control non-treated cells (1.5 ng/mL). […] The percentages of TH positive cells produced by chemical treatment with Kenpaullone (33%), Guggulsterone (35%), Kynurenic Acid (19%), Immedthridine Dihydrobromide (21%), and Dimaprit Dihydrochloride (18%) were higher than 15% of TH positive cells obtained from hPSC-NSCs differentiated for ≥1 month using a standard dopaminergic differentiation medium (BDNF 20 ng/mL, GDNF 20 ng/mL, cAMP 200 μM, Abscorbic Acid 200 μM, TGFβ3 2 ng/mL and DAPT).
Total RNA from at least triplicate samples with around 1 million cells each was isolated using either QIAsymphony automatic purification system or RNeasy Plus Mini kit, according to manufacturer's instructions (Qiagen). Total RNA was used for reverse transcription with the iScript cDNA synthesis kit (Biorad) and Px2 Thermal Cycler (Thermo Scientific). To analyze gene expression, PCR reactions were performed in duplicate using 1/25-th of the cDNA per reaction and the QuantiTect Primer Assay and Quantitest SYBR Green master mix (Qiagen). qPCR was performed using the Rotor-Gene Q (Qiagen) 5 min at 95° C., 5 s at 92° C., and 20 s at 60° C. for 37 cycles followed by melt to check the specificity of the amplicons from 50 to 99° C. raising by 1° C. each step. Relative quantification was performed against a standard curve and quantified values were normalized against the input determined by PPIG. The primers used for the analysis are listed in Supplementary Table S1. […]

[1] = hPSC-NSCs primed 7 days with Purmorphamine and FGF8, small molecule 2.5 μM for two weeks
[2] = hPSC-NSCs primed 7 days with Purmorphamine and FGF8, small molecule 2.5 μM for two weeks, read-out: DDC (AADC) expression by RT-PCR
[3] = hPSC-NSCs primed 7 days with Purmorphamine and FGF8, small molecule 2.5 μM for two weeks, read-out: EN1 expression by RT-PCR
[4] = hPSC-NSCs primed 7 days with Purmorphamine and FGF8, small molecule 2.5 μM for two weeks, read-out: KCNJ6 expression by RT-PCR
[5] = hPSC-NSCs primed 7 days with Purmorphamine and FGF8, small molecule 2.5 μM for two weeks, read-out: LMX1B expression by RT-PCR
[6] = hPSC-NSCs primed 7 days with Purmorphamine and FGF8, small molecule 2.5 μM for two weeks, read-out: MAP2 expression by RT-PCR
[7] = hPSC-NSCs primed 7 days with Purmorphamine and FGF8, small molecule 2.5 μM for two weeks, read-out: NR4A2 (NURR1) expression by RT-PCR
[8] = hPSC-NSCs primed 7 days with Purmorphamine and FGF8, small molecule 2.5 μM for two weeks, read-out: PITX3 expression by RT-PCR
[9] = hPSC-NSCs primed 7 days with Purmorphamine and FGF8, small molecule 2.5 μM for two weeks, read-out: Pax2 expression by RT-PCR
[10] = hPSC-NSCs primed 7 days with Purmorphamine and FGF8, small molecule 2.5 μM for two weeks, read-out: TH1 expression by RT-PCR
[11] = hPSC-NSCs primed 7 days with Purmorphamine and FGF8, small molecule 2.5 μM for two weeks, read-out: Tubb3 expression by RT-PCR
[12] = hPSC-NSCs primed 7 days with Purmorphamine and FGF8, small molecule 2.5 μM for two weeks, read-out: SLC6A3 (DAT) expression by RT-PCR

Structure (SMILES)	DDC (AADC) expression by RT-PCR [1]	EN1 expression by RT-PCR [1]	KCNJ6 (GRK2) expression by RT-PCR [1]	LMX1B expression by RT-PCR [1]	MAP2 expression by RT-PCR [1]	NR4A2 (NURR1) expression by RT-PCR [1]	PITX3 expression by RT-PCR [1]	Pax2 expression by RT-PCR [1]	SLC6A3 (DAT) expression by RT-PCR [1]	TH1 expression by RT-PCR [1]	Tubb3 expression by RT-PCR [1]	further results
Cc1cc(C(=O)O)sc1C(N)C(=O)O (stereo not drawn) [3-MATIDA]	80.55	7.3	1.21	2.99	10.7	3.06	0.46	0.65	1.42	5.1	3.74	
Br.CCCN(CCC)C1CCc2cccc(O)c2C1 (stereo not drawn) [8-Hydroxy-DPAT hydrobromide]	124.29	11.69	0.9	5.42	14.43	7.66		1.25	19.9	7.32	7.8	
N[C@@H]1CCN(O)C1=O [(R)-(+)-HA-966]	104.03	7.26	1.02	3.94	10.66	3.91	0.23	4.7	26.39	6.75	5.61	
Cc1nnc2ccc(-c3cccc(C(F)(F)F)c3)nn12 [CL 218872]	8.73	5.69	0.43	2.52	8.94	1.79	0.08	0.09	0.98	13.89	4.3	
Nc1nc(Nc2ccccc2)nc2c1ncn2[C@@H]1O[C@H](CO)[C@@H](O)[C@H]1O [CV 1808]	16.69	5.56	0.36		8.66	1.56	0.7		0.94	12.51	3.86	
CCCC[C@@H](C=O)NC(=O)[C@H](CC(C)C)NC(=O)OCc1ccccc1 [Calpeptin]												fold induction at 2.5 µM (read-out: SLC6A3 (DAT) expression by RT-PCR): 6.57; fold induction at 2.5 µM [2]: 295; fold induction at 2.5 µM [3]: 6.93; fold induction at 2.5 µM [4]: 4.43; fold induction at 2.5 µM [5]: 2.9; fold induction at 2.5 µM [6]: 12.9; fold induction at 2.5 µM [7]: 2.45; fold induction at 2.5 µM [8]: 0.37; fold induction at 2.5 µM [9]: 3.54; fold induction at 2.5 µM [10]: 15.2; fold induction at 2.5 µM [11]: 6.1
CC(C)(C)c1cc(C(=O)/C=C/c2ccc(C(=O)O)cc2)cc(C(C)(C)C)c1 [Ch 55]	22.86	11.61	0.25	1.54	5.25	77.93	0.13	0.06	0.11	1.19	3.48	
O=S(=O)(c1cccc2cnccc12)N1CCCNCC1 [Fasudil hydrochloride]												fold induction at 2.5 µM [2]: 32.4; fold induction at 2.5 µM [3]: 8.69; fold induction at 2.5 µM [4]: 1.57; fold induction at 2.5 µM [5]: 3.5; fold induction at 2.5 µM [6]: 11.6; fold induction at 2.5 µM [7]: 4.53; fold induction at 2.5 µM [8]: 0.27; fold induction at 2.5 µM [9]: 0.27; fold induction at 2.5 µM [12]: 2.79; fold induction at 2.5 µM [10]: 5.53; fold induction at 2.5 µM [11]: 5.67
O=C(O)Cc1cccnc1C(=O)O [Homoquinolinic acid]	20.19	4.83	1.76	2.32	10.03	1.99	0.4	0.05	19.18	10.77	2.95	
Cl.O=C(O)COc1ccc(OCCNC[C@H](O)COc2ccccc2)cc1 [ICI 215,001 hydrochloride]	29.34	8.52	1.48	4.79	11.2	2.88		39.43	1.77	6.04	5.54	
N[C@@H](CS(=O)O)C(=O)O [L-Cysteinesulfinic acid]	17.27	5.76	3.02	2.66	9.52	2.02		0.22	1.54	7.84	3.41	
c1ccc(-c2[nH]ncc2-c2ccnc3ccccc23)nc1 [LY 364947]	64.48	7.42	1.09		10.48	3.01			5.08	5.23	4.23	
O=C1N(c2ccccc2)c2ccccc2C1(Cc1ccncc1)Cc1ccncc1 [Linopirdine dihydrochloride]												fold induction at 2.5 µM [2]: 7.02; fold induction at 2.5 µM [3]: 4.06; fold induction at 2.5 µM [4]: 0.16; fold induction at 2.5 µM [5]: 2.84; fold induction at 2.5 µM [6]: 7.02; fold induction at 2.5 µM [7]: 0.69; fold induction at 2.5 µM [8]: 0.26; fold induction at 2.5 µM [9]: 0.3; fold induction at 2.5 µM [12]: 0.28; fold induction at 2.5 µM [10]: 8.61; fold induction at 2.5 µM [11]: 3.74
